Biological target: T1, human TLR8 (Homo sapiens, UniProt Q9NR97)
T1 sequence (Q9NR97 27-1041): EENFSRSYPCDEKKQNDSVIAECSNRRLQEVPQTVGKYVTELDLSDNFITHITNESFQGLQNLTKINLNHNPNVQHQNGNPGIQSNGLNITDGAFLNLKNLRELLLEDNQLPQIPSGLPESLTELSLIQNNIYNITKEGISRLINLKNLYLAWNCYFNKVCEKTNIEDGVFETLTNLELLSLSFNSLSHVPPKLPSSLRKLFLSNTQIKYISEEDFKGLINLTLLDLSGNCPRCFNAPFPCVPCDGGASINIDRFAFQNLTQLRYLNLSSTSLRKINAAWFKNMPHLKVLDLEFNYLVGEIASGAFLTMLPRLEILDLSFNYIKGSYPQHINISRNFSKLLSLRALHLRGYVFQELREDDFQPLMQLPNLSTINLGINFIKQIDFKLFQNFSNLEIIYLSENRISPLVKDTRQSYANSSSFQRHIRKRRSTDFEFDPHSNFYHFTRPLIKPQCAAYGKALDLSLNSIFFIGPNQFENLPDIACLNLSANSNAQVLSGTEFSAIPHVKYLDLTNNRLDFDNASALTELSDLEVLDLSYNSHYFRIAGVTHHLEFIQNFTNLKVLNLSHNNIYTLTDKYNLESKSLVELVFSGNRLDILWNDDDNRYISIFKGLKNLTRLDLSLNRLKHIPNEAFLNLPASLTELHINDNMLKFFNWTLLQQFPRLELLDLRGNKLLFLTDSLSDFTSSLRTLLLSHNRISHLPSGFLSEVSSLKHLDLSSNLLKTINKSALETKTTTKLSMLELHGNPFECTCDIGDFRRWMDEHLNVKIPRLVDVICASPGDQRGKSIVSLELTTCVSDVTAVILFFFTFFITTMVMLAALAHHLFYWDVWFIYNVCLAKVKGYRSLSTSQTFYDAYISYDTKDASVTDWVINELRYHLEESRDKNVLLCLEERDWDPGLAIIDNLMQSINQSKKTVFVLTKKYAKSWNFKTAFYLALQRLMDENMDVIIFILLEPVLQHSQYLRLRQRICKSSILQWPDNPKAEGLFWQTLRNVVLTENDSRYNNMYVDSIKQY
Test: HEK293-Blue-hTLR-8 cells assay (SEAP reporter, R848 stimulation)
Format: cell-based
Conditions: HEK293-Blue-hTLR8 cells, R848, 20 hrs; 0.003 is the lowest tested concentration; read-out: HEK/hTLR8 IC50
How it was run: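 Antagonist mode: HEK293-Blue-hTLR8 cells at 250,000–450,000 cells/mL in DMEM with 10% FBS were treated with serially diluted compound (1% DMSO final) plus R848 (10 µL of 60 µM stock) for 20 h at 37 °C. NF-κB/AP-1-driven SEAP in supernatant measured with QUANTI-Blue, 2 h at 37 °C, absorbance 620–655 nm.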

IC50	SMILES
10 nM	C[C@@H]1CN(c2ccc(C#N)c3ncccc23)C[C@H](CN2Cc3ccc(N4CCNCC4CO)cc3C2)O1 (stereo partly drawn) [Example 73, 5-[(2S,6R)-2-[[5-[2-(hydroxymethyl)piperazin-1-yl]isoindolin-2-yl]methyl]-6-methyl-morpholin-4-yl]quinoline-8-carbonitrile]
< 3 nM	C[C@@H]1CN(c2ccc(C#N)c3ncccc23)C[C@H](CN2Cc3ccc(CN4CCCCC4)cc3C2)O1 [Example 74, 5-[(2R,6S)-2-methyl-6-[[5-(1-piperidylmethyl)isoindolin-2-yl]methyl]morpholin-4-yl]quinoline-8-carbonitrile]
4 nM	C[C@@H]1CN(c2ccc(C#N)c3ncccc23)C[C@H](CN2Cc3ccc(N4CCNCC4)cc3C(O)C2)O1 (stereo partly drawn) [Example 75, 5-[(2S,6R)-2-[(4-hydroxy-6-piperazin-1-yl-3,4-dihydro-1H-isoquinolin-2-yl)methyl]-6-methyl-morpholin-4-yl]quinoline-8-carbonitrile]
4 nM	C[C@@H]1CN(c2ccc(C#N)c3ncccc23)C[C@H](CN2Cc3ccc(N4CCNCC4C(F)F)cc3C2)O1 (stereo partly drawn) [Example 76, 5-[(2S,6R)-2-[[5-[2-(difluoromethyl)piperazin-1-yl]isoindolin-2-yl]methyl]-6-methyl-morpholin-4-yl]quinoline-8-carbonitrile]
8 nM	C[C@@H]1CN(c2ccc(C#N)c3ncccc23)C[C@H](CN2Cc3ccc(N4CC(N)C4)cc3C2)O1 [Example 77, 5-[(2S,6R)-2-[[5-(3-aminoazetidin-1-yl)isoindolin-2-yl]methyl]-6-methyl-morpholin-4-yl]quinoline-8-carbonitrile]
< 3 nM	CC1CNCCN1c1ccc2c(c1)CN(C[C@H]1CN(c3ccc(C#N)c4ncccc34)C[C@@H](C)O1)C2 (stereo partly drawn) [Example 78, 5-[(2R,6S)-2-methyl-6-[[5-(2-methylpiperazin-1-yl)isoindolin-2-yl]methyl]morpholin-4-yl] quinoline-8-carbonitrile]
4 nM	C[C@@H]1CN(c2ccc(C#N)c3ncccc23)C[C@H](CN2CCc3nc(N4CCNCC4)ccc3C2)O1 [Example 79, 5-[(2R,6S)-2-methyl-6-[(2-piperazin-1-yl-7,8-dihydro-5H-1,6-naphthyridin-6-yl)methyl]morpholin-4-yl]quinoline-8-carbonitrile]
< 3 nM	C[C@@H]1CN(c2ccc(C#N)c3ncccc23)C[C@H](CN2Cc3ccc(N4CCNCC4)nc3C2)O1 [Example 80, 5-[(2R,6S)-2-methyl-6-[(2-piperazin-1-yl-5,7-dihydropyrrolo[3,4-b]pyridin-6-yl)methyl]morpholin-4-yl]quinoline-8-carbonitrile]
14 nM	C[C@@H]1CN(c2ccc(C#N)c3ncccc23)C[C@H](CN2Cc3ccc(N4CCNC[C@@H]4CO)cc3C2)O1 [Example 82, 5-[(2S,6R)-2-[[5-[(2R)-2-(hydroxymethyl)piperazin-1-yl]isoindolin-2-yl]methyl]-6-methyl-morpholin-4-yl]quinoline-8-carbonitrile]
20 nM	C[C@@H]1CN(c2ccc(C#N)c3ncccc23)C[C@H](CN2Cc3ccc(N4CCNC[C@H]4CO)cc3C2)O1 [Example 83, 5-[(2S,6R)-2-[[5-[(2S)-2-(hydroxymethyl)piperazin-1-yl]isoindolin-2-yl]methyl]-6-methyl-morpholin-4-yl]quinoline-8-carbonitrile]
22 nM	C[C@@H]1CN(c2ccc(C#N)c3nccnc23)C[C@H](CNCc2ccc(N3CCNCC3)cc2)O1 [Example 84, 8-[(2R,6S)-2-methyl-6-[[(4-piperazin-1-ylphenyl)methylamino]methyl]morpholin-4-yl]quinoxaline-5-carbonitrile]
26 nM	C[C@@H]1CN(c2ccc(C#N)c3ncccc23)C[C@H](CNCc2ccc(N3CCNCC3)cc2)O1 [Example 86, 5-[(2R,6S)-2-methyl-6-[[(4-piperazin-1-ylphenyl)methylamino]methyl]morpholin-4-yl] quinoline-8-carbonitrile]
118 nM	C[C@@H]1CN(c2ccc(C#N)n3nccc23)C[C@H](CN2CCc3cnccc3C2)O1 [Example R1, 4-[(2S,6R)-2-(3,4-dihydro-1H-2,6-naphthyridin-2-ylmethyl)-6-methyl-morpholin-4-yl]pyrazolo[1,5-a]pyridine-7-carbonitrile, reference compound]
784 nM	C[C@@H]1CN(c2ccc(C#N)n3nccc23)C[C@H](CN2Cc3ccncc3C2)O1 [Example R2, 4-[(2S,6R)-2-(1,3-dihydropyrrolo[3,4-c]pyridin-2-ylmethy1)-6-methyl-morpholin-4-yl]pyrazolo[1,5-a]pyridine-7-carbonitrile, reference compound]

SMILES	IC50
C[C@@H]1CN(c2ccc(C#N)c3ncccc23)C[C@H](CN2Cc3ccccc3C2)O1 [Example R3, 5-[(2S,6R)-2-(isoindolin-2-ylmethyl)-6-methyl-morpholin-4-yl]quinoline-8-carbonitrile, reference compound]	146 nM

From patent EP3623369A1, “NOVEL MORPHOLINYL AMINE COMPOUNDS FOR THE TREATMENT OF AUTOIMMUNE DISEASE” (F. Hoffmann-La Roche AG, priority 2018, dated 2020)
